Reference: PMC9688159 (Cancers, 2022)
Like-named read-outs stand apart in the source and are kept apart here. Each block holds one compound with its values, some of them ahead of it. Square brackets hold non-standard residues; d marks the D form. Peptide text beside a SMILES is read from it. pGlu = O=C1CC[C@@H](C(=O)O)N1

What was measured:
BxPC-3 cells [1] = assay: cell viability (MTS); format: cell-based, human
Source text: (§1) Pancreatic carcinoma cell lines, PANC-1 (ACC 783), BxPC-3 (ACC 760), and Capan-1 (ACC 244), were obtained from DSMZ (Braunschweig, Germany). Normal human fibroblasts (NHF; 106-05A) were purchased from Sigma-Aldrich (Poznan, Poland). PANC-1 and NHF cells were maintained in DMEM containing 10% fetal bovine serum (FBS) and 1% antibiotic solution. BxPC-3 and Capan-1 cells were maintained in […] with 15% FBS and 1% penicillin/streptomycin solution. Cells were regularly tested for mycoplasma contamination.
(§2) In all experiments, cells were seeded in 96-well plates at a density of 4 × 10^3 (PANC-1, BxPC-3), 5 × 10^3 (Capan-1), and 2 × 10^3 (NHF) cells per well. Plates were incubated for 24 h at 37 °C.
(§3) To evaluate the effect of each compound on cell viability, cells were treated with different concentrations (0–60 µM) of tested compounds for 24, 48, and 72 h. Next, 20 µL of MTS solution was added to each well. Plates were incubated for 2 h at 37 °C. The absorbance was measured at 490 nm. Untreated cells served as a negative control. The number of viable cells is directly proportional to the intensity of color produced. Cell viability is expressed as a percentage of control cells.
(§4) Next, the medium was removed and a fresh medium containing tested compounds (at a concentration of 0–60 µM) was added. Plates were incubated for a further 24 h. Next, 20 µL of MTS solution was added to each well, and incubation was started (for 2 h at 37 °C). The absorbance was measured at 490 nm. Untreated cells served as a negative control.

Capan-1 cells = assay: cell viability (MTS); format: cell-based, human
Source text: as §1, §2, §3, §4

PANC-1 cells = assay: cell viability (MTS); format: cell-based, human
Source text: as §1, §2, §3, §4

[2] = test system: normal human fibroblasts (NHF); assay: cell viability (MTS); format: cell-based
Source text: as §1, §2, §3, §4

[3] = test system: PANC-1, BxPC-3, Capan-1 cells and NHF; format: cell-based, human
Source text: as §1, §2, §3

[4] = test system: PANC-1, BxPC-3 and NHF cells; assay: cell migration (scratch assay), statements for several cell lines together; format: cell-based, human; conditions: for effect on cell migration: scratch assay, 0-40 µM, 24 and 48 h
Method: In all experiments, cells were seeded in 24-well plates at a density of 7 × 10^3 (PANC-1, BxPC-3) and 4 × 10^3 (NHF) cells per well and incubated for 48 h. Next, clear lines were made using a sterile 10 μL pipette tip. The medium was carefully removed, and 500 µL of fresh medium was added to the cells. For evaluation of the effect of each compound on cell proliferation, cells were treated with different concentrations (0–40 µM) of tested compounds. Phase-contrast microscopic pictures were taken at 24, 48, and 72 h, and the area of the wound was measured using Image J software (National Institute of Health, V1.5, Bethesda, […], USA). […] Phase-contrast microscopic pictures were taken at 6 and 24 h. The cell migration rate was calculated by measuring the area of the wound at each timepoint. The measurements were performed using ImageJ software. The medium was not changed during the experiment. Due to its inability to form a confluent monolayer, cell migration was not evaluated for Capan-1 cells.

DRD2 [5] = target: T1, DRD2 (Rattus norvegicus, UniProt P61169); assay: [3H]spiperone competition binding (DRD2 displacement), membrane homogenates; conditions: 0.25 nM [3H]spiperone
T1 construct: from tissue; host or cells: Wistar rat brain and spinal cord membranes
Method: (§5) Rats were decapitated, and their brains and spinal cords were quickly removed. […] Briefly, the brains and spinal cords were homogenized in freshly prepared ice-cold Tris-HCl buffer (50 mM, pH 7.4) and centrifuged at 18,000 rpm for 20 min (4 °C). The resulting supernatant was removed while the pellet was taken up in the original volume of Tris-HCl buffer. The homogenate was further incubated at 37 °C for 30 min and again centrifuged. The received pellet was consequently suspended in 50 mM Tris-HCl (pH 7.4) buffer and kept until analysis at −80 °C.
(§6) In DRD1 displacement, the Tris-HCl buffer (pH 7.4) contained 120 mM NaCl, 5 mM KCl, 1 mM MgCl2, 2 mM CaCl2, and 1 µM mianserin. In DRD2 displacement, the Tris-HCl buffer (pH 7.4) was a mixture of 5 mM KCl, 2 mM MgCl2, 2 mM CaCl2, and 1 µM ketanserin. The incubation of tissue membranes was performed in the presence of the unlabeled ligands in increasing concentrations (10^−10–10^−5 M) at 35 °C for 45 min with [^3H]SCH-23390 and at 25 °C for 120 min with [^3H]spiperone. […] The experiment was performed in duplicate and repeated at least three times.
(§7) In the competition binding assays, the IC50 value was calculated using ‘one site competition’ fitting. The inhibitory activity was presented as a percentage of the specific binding observed.

DRD2 [6] = target: T1, DRD2; assay: ligand-stimulated [35S]GTPγS binding (G-protein activity), membrane homogenates; format: biochemical; conditions: for maximal G-protein efficacy (Emax): basal activity = 100%; for EC50: logarithm of EC50, read-out: potency (log EC50) (converted)
BxPC-3 cells [7] = assay: cell migration (scratch assay); format: cell-based, human; conditions: BxPC-3, after 24 h
Method: In all experiments, cells were seeded in 24-well plates at a density of 7 × 10^3 (PANC-1, BxPC-3) and 4 × 10^3 (NHF) cells per well and incubated for 48 h. Next, clear lines were made using a sterile 10 μL pipette tip. The medium was carefully removed, and 500 µL of fresh medium was added to the cells.
For evaluation of the effect of each compound on cell proliferation, cells were treated with different concentrations (0–40 µM) of tested compounds. Phase-contrast microscopic pictures were taken at 24, 48, and 72 h, and the area of the wound was measured using Image J software (National Institute of Health, V1.5, Bethesda, MA, USA).
The cell migration rate was calculated by measuring the area of the wound at each timepoint. The measurements were performed using ImageJ software. The medium was not changed during the experiment. Due to its inability to form a confluent monolayer, cell migration was not evaluated for Capan-1 cells.

DRD1 [8] = target: T2, DRD1 (Rattus norvegicus, UniProt P18901); conditions: read-out: IC50, DRD1; rat spinal cord homogenates; 2 nM [3H]SCH-23390
Method: as §5, §6, §7

GRP-Rs = test system: GRP-Rs; design: method as in PMID 1850273; conditions: compared with GRP; cited from earlier work
DRD1 [9] = target: T2, DRD1; assay: biochemical
Method: as §5, §6, §7

[10] = Homo sapiens, Fibroblast, NHF, 24 h
[11] = Homo sapiens, Fibroblast, NHF, 48 h
[12] = Homo sapiens, Fibroblast, NHF, 72 h
[13] = rat spinal cord membrane homogenates

T1 sequence (P61169 whole entry): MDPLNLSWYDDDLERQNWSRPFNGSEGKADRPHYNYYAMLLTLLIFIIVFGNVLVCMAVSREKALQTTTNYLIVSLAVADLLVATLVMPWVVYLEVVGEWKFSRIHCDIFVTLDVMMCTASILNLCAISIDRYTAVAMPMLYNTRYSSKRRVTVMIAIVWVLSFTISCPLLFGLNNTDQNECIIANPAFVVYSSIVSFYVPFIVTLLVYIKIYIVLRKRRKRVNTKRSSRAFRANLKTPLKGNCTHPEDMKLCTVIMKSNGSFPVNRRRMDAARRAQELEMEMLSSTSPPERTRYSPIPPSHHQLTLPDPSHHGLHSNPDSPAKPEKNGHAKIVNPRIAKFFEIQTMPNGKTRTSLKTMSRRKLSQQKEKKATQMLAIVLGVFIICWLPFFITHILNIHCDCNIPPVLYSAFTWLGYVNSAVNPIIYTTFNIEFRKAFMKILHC
T2 sequence (P18901 whole entry): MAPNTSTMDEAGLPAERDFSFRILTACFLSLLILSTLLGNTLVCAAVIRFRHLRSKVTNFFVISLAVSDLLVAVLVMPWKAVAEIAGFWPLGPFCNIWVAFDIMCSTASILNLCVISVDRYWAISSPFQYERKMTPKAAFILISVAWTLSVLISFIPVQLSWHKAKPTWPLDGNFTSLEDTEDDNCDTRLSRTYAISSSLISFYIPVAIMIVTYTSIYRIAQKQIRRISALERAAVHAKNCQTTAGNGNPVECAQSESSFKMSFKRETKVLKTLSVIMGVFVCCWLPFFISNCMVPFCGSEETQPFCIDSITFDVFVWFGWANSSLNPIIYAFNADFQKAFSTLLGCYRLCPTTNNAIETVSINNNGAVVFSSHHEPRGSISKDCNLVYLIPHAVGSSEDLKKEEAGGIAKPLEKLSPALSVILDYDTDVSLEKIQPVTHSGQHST

IC50 (BxPC-3 cells [1]; Homo sapiens, BXPC-3, 24 h): > 60 µM
IC50 (BxPC-3 cells [1]; Homo sapiens, BXPC-3, 48 h): > 60 µM
IC50 (BxPC-3 cells [1]; Homo sapiens, BXPC-3, 72 h): > 60 µM
IC50 (PANC-1 cells; Homo sapiens, PANC-1, 24 h): > 60 µM
IC50 (PANC-1 cells; Homo sapiens, PANC-1, 48 h): > 60 µM
IC50 (PANC-1 cells; Homo sapiens, PANC-1, 72 h): > 60 µM
Structure (SMILES): NCCc1ccc(O)c(O)c1 [Dopamine]
IC50 (Capan-1 cells; Homo sapiens, CAPAN-1, 24 h): > 60 µM
IC50 (Capan-1 cells; Homo sapiens, CAPAN-1, 48 h): > 60 µM
IC50 (Capan-1 cells; Homo sapiens, CAPAN-1, 72 h): > 60 µM
IC50 [2, 10]: > 60 µM
IC50 [2, 11]: > 60 µM
IC50 [2, 12]: > 60 µM
effect on cell viability ([3]; all tested cells): increase in cell viability
effect on cell migration [4]: did not significantly increase

IC50 (BxPC-3 cells [1]; Homo sapiens, BXPC-3, 24 h): > 60 µM
IC50 (BxPC-3 cells [1]; Homo sapiens, BXPC-3, 48 h): 0.643 ± 0.05 µM
IC50 (BxPC-3 cells [1]; Homo sapiens, BXPC-3, 72 h): 0.296 ± 0.15 µM
IC50 (PANC-1 cells; Homo sapiens, PANC-1, 24 h): > 60 µM
IC50 (PANC-1 cells; Homo sapiens, PANC-1, 72 h): 0.28 ± 0.031 µM
Structure (SMILES): Nc1ccn([C@@H]2O[C@H](CO)[C@@H](O)C2(F)F)c(=O)n1 [Gemcitabine, gemcitabine]
IC50 (Capan-1 cells; Homo sapiens, CAPAN-1, 24 h): > 60 µM
IC50 (Capan-1 cells; Homo sapiens, CAPAN-1, 72 h): 0.657 ± 0.13 µM
IC50 [2, 10]: > 60 µM
IC50 [2, 12]: 1.28 ± 0.1 µM
effect on cell migration [4]: slower migration with increasing concentration

IC50 (BxPC-3 cells [1]; Homo sapiens, BXPC-3, 24 h): 21.7 ± 2.27 µM
IC50 (BxPC-3 cells [1]; Homo sapiens, BXPC-3, 48 h): 16.1 ± 0.94 µM
IC50 (BxPC-3 cells [1]; Homo sapiens, BXPC-3, 72 h): 17.8 ± 1.38 µM
IC50 (PANC-1 cells; Homo sapiens, PANC-1, 24 h): 15.1 ± 1.51 µM
IC50 (PANC-1 cells; Homo sapiens, PANC-1, 48 h): 17 ± 1.08 µM
IC50 (PANC-1 cells; Homo sapiens, PANC-1, 72 h): 20.3 ± 2.02 µM
Structure (SMILES): O=c1[nH]c2ccccc2n1C1CCN(CCCC(c2ccc(F)cc2)c2ccc(F)cc2)CC1 [Pimozide, pimozide]
IC50 (Capan-1 cells; Homo sapiens, CAPAN-1, 24 h): 25.3 ± 3.11 µM
IC50 (Capan-1 cells; Homo sapiens, CAPAN-1, 48 h): 20.7 ± 1.3 µM
IC50 (Capan-1 cells; Homo sapiens, CAPAN-1, 72 h): 20 ± 1.79 µM
IC50 [2, 10]: 38.7 ± 1.37 µM
IC50 [2, 11]: 28.7 ± 3.82 µM
IC50 [2, 12]: 23.6 ± 0.92 µM
effect on cell migration [4]: decreased with the increasing concentration

Structure (SMILES): CSCC[C@H](NC(=O)[C@H](Cc1ccccc1)NC(=O)[C@H](Cc1c[nH]cn1)NC(=O)CNC(=O)[C@@H](NC(=O)[C@H](C)NC(=O)[C@H](Cc1c[nH]c2ccccc12)NC(=O)[C@H](CCC(N)=O)NC(=O)[C@@H]1CCCN1C(=O)[C@@H](NC(=O)[C@@H]1CCC(=O)N1)C(C)C)C(C)C)C(N)=O [Ranatensin] ([pGlu]VPQWAVGHFM-NH2)
IC50 (DRD2 [5]; rat brain membranes): 0.0127 µM
IC50 (DRD2 [5]; rat spinal cord homogenates): 0.0488 ± 0.00115 µM
functional character at DRD2 (DRD2 [6]; conclusion from binding and [35S]GTPγS assays): DRD2 agonist
maximal G-protein efficacy (Emax) (DRD2 [6]; rat brain membrane homogenates): 124.1%
EC50 (DRD2 [6]; rat brain membrane homogenates): 0.0184 µM
Emax in presence of selective DRD2 antagonist risperidone (DRD2 [6]; rat brain, basal = 100%): 101.5%
maximal G-protein efficacy (Emax) (DRD2 [6]; [13]): 119.8%
EC50 (DRD2 [6]; [13]): 0.78 µM
Emax in presence of selective DRD1 antagonist SCH-39166 (DRD2 [6]; rat spinal cord membranes, basal = 100%): 117.4%
Emax in presence of selective DRD2 antagonist risperidone (DRD2 [6]; rat spinal cord, basal = 100%): 100.0%
IC50 (BxPC-3 cells [1]; BxPC-3, 48 h): > 60 µM
IC50 (BxPC-3 cells [1]; BxPC-3, 72 h): > 60 µM
IC50 (Capan-1 cells; Capan-1, 48 h): > 60 µM
IC50 (Capan-1 cells; Capan-1, 72 h): > 60 µM
decrease in viability compared to the control (Capan-1 cells; Capan-1, RAN only, 24 h): around 20%
IC50 (PANC-1 cells; PANC-1, 48 h): > 60 µM
IC50 (PANC-1 cells; PANC-1, 72 h): > 60 µM
effect on cell viability (PANC-1 cells; PANC-1, prolonged incubation (48 and 72 h)): significant increase in PANC-1 cell viability
IC50 ([2]; NHF, 48 h): > 60 µM
IC50 ([2]; NHF, 72 h): > 60 µM
effect on cell viability ([2]; NHF, longer exposure (48 and 72 h)): reduction in fibroblast viability compared to untreated cells
effect on cell viability ([3]; cancer cells, 24 h): lower viability compared to the untreated cells
concentration with total wound closure (BxPC-3 cells [7]): ≥ 20 µM
migration rate of DRD2-blocked cells ([4]; PANC-1 and BxPC-3, risperidone pretreated, 24 h): slower in comparison to cells treated with RAN alone
effect on cell migration [4]: migrated at a similar rate to untreated cells
IC50 (DRD1 [8]): > 10 µM
affinity for GRP-Rs (GRP-Rs): equal affinity for GRP-Rs to GRP itself
IC50 (DRD1 [9]): > 10 µM

Structure (SMILES): Cc1nc2n(c(=O)c1CCN1CCC(c3noc4cc(F)ccc34)CC1)CCCC2 [Risperidone]
effect on cell viability [2]: no effect
decrease in cell viability [3]: up to 20%
